What all share (assay type): cell-based
The target of assay [1] is EGFR(D770_N771insSVD) expressing Ba/F3 stable cell line (Homo sapiens, UniProt P00533, DUP768-770, cells depend on it). Briefly: Cellular proliferation (Alamar Blue) assay, EGFR D770_N771insSVD Ba/F3. The conditions noted are these: 72 hr, read-out: D770 IC50. The procedure, abridged: (§1)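 Seventy-two-hour compound exposure (3-fold series, final 10–0.0005 μM) of mutant EGFR/HER2 Ba/F3 cells plated at 15,000/well in RPMI with 10% FBS. Alamar Blue added for 3 h at 37 °C as proliferation read-out.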
In general terms: The colour change of resazurin is a common sign of viable cells or microbes.

The target in assay [2] is EGFR (A767_dupASV) expressing Ba/F3 stable cell line (Homo sapiens, UniProt P00533, DUP767-769, cells depend on it). Kind of assay: Cellular proliferation (Alamar Blue) assay, EGFR A767_dupASV Ba/F3. The conditions noted are these: 72 hr, read-out: A767 IC50. A digest of the protocol: as §1
Assay [3] relates to A431 cells. Kind of assay: Cellular proliferation (Alamar Blue) assay, A431.
Assay [4] concerns the target EGFR (H773insNPH) expressing Ba/F3 stable cell line (Homo sapiens, UniProt P00533, DUP771-773, cells depend on it). Kind of assay: Cellular proliferation (Alamar Blue) assay, EGFR H773insNPH Ba/F3. The conditions noted are these: 72 hr, read-out: NPH IC50. The procedure, abridged:
as §1

Assay [5] concerns the target HER2 (A775_G776insYVMA) expressing Ba/F3 stable cell line (Homo sapiens, UniProt P04626, DUP772-775, cells depend on it). Kind of assay: Cellular proliferation (Alamar Blue) assay, HER2 A775_G776insYVMA Ba/F3. Conditions: 72 hr, read-out: YVMA IC50. The procedure, abridged: as §1
Setting [6] is: Homo sapiens, A-431; A431 cells, Alamar Blue, 72 hr; read-out: A431 IC50.

By pIC50 is commonly meant −log10 of the IC50, conventionally taken in molar units.

The structures appear in SMILES notation. pIC50: −log10 of the molar value. Structures can show the parent of a compound that is named as a salt. Where two headings read alike, the source gives them in different places.

HER2 (A775_G776insYVMA) expressing Ba/F3 stable cell line, sequence (P04626 with tags, fused parts or gaps DUP772-775): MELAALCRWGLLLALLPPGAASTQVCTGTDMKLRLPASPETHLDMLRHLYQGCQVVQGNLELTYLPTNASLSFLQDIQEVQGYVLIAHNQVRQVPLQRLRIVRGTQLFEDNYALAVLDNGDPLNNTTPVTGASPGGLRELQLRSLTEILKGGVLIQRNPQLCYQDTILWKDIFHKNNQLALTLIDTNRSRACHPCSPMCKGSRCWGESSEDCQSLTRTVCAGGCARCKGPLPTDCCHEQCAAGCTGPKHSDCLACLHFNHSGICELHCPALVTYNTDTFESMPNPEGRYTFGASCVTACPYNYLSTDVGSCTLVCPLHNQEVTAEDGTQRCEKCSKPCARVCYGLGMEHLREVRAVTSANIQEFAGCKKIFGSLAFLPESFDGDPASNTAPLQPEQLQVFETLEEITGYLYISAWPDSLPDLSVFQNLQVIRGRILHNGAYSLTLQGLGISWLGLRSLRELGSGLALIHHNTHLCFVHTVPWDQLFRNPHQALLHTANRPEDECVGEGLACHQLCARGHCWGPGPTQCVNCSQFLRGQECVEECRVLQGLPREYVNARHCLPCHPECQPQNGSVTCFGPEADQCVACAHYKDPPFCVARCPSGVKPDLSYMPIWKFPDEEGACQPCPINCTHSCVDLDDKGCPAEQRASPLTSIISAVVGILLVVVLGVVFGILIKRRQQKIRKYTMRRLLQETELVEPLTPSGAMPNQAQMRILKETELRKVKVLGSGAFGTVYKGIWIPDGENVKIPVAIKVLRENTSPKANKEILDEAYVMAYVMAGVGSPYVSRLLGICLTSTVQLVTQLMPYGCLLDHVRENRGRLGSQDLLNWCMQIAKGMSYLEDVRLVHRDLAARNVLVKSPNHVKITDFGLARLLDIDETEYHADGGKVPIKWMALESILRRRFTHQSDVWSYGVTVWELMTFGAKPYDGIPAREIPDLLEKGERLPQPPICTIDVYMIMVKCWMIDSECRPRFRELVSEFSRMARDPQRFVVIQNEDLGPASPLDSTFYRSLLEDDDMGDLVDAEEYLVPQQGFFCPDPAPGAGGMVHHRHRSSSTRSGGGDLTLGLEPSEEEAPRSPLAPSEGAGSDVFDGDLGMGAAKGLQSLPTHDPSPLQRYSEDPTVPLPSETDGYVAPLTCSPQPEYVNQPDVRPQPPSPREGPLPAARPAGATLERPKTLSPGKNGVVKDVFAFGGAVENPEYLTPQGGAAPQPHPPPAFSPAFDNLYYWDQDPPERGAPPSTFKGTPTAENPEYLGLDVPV
EGFR(D770_N771insSVD) expressing Ba/F3 stable cell line, sequence (P00533 with tags, fused parts or gaps DUP768-770): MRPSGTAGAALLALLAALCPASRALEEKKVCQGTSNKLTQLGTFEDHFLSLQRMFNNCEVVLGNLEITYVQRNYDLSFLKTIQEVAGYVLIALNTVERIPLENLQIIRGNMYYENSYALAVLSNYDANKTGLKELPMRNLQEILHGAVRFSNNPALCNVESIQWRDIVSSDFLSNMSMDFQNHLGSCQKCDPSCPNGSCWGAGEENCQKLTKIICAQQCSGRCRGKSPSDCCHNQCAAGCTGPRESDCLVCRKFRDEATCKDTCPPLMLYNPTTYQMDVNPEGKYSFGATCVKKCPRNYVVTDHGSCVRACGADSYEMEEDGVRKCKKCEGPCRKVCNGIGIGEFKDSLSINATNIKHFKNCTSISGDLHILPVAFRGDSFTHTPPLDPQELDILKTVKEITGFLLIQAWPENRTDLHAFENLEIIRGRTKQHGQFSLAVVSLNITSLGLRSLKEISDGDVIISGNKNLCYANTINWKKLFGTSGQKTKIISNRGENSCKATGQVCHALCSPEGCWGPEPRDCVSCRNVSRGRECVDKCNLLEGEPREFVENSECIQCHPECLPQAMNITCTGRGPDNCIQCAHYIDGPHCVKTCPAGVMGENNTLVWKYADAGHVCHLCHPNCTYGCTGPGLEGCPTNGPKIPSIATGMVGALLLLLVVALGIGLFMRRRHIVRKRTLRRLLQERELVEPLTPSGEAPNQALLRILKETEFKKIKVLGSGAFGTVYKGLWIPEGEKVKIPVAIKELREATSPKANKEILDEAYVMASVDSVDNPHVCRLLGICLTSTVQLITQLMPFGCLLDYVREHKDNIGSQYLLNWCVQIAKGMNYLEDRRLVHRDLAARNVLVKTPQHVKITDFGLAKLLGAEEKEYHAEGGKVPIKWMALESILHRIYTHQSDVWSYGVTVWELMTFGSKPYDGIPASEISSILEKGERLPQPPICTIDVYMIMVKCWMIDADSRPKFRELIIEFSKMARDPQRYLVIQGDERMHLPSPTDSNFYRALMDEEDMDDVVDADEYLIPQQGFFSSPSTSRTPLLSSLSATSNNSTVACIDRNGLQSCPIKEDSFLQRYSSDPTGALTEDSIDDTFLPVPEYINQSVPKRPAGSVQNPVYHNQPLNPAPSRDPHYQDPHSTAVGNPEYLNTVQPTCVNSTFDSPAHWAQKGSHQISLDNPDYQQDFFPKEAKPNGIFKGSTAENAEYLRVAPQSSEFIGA
EGFR (H773insNPH) expressing Ba/F3 stable cell line, sequence (P00533 with tags, fused parts or gaps DUP771-773): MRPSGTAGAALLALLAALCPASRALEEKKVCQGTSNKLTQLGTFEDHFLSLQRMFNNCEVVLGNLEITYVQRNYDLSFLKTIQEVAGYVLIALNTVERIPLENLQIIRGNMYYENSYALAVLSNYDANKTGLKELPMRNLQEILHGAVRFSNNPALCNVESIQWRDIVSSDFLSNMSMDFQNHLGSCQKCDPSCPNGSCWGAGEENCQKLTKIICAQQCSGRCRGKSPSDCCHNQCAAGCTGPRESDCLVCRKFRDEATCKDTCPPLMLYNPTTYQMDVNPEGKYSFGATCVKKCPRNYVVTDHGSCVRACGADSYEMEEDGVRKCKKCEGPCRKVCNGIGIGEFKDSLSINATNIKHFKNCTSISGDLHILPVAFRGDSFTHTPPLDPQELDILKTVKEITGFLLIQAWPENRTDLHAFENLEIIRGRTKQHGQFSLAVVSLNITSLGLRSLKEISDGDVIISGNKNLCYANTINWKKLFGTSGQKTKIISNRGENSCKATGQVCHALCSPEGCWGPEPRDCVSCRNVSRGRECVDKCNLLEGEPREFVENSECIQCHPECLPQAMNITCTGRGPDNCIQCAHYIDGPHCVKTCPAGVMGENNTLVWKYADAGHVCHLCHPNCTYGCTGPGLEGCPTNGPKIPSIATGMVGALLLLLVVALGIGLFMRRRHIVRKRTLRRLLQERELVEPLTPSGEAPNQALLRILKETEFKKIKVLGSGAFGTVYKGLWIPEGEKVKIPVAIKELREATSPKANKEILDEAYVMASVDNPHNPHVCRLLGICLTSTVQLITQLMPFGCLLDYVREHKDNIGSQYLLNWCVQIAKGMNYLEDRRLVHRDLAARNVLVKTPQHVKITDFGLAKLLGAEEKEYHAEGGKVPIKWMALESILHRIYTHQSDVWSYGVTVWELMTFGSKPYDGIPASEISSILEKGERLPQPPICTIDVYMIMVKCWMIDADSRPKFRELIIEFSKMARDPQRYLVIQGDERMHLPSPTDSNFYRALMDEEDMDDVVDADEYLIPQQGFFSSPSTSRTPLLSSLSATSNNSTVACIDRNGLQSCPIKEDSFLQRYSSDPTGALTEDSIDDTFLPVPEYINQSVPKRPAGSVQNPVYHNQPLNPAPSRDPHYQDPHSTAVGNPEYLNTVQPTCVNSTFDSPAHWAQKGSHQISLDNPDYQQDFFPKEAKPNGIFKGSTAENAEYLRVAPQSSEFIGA
EGFR (A767_dupASV) expressing Ba/F3 stable cell line, sequence (P00533 with tags, fused parts or gaps DUP767-769): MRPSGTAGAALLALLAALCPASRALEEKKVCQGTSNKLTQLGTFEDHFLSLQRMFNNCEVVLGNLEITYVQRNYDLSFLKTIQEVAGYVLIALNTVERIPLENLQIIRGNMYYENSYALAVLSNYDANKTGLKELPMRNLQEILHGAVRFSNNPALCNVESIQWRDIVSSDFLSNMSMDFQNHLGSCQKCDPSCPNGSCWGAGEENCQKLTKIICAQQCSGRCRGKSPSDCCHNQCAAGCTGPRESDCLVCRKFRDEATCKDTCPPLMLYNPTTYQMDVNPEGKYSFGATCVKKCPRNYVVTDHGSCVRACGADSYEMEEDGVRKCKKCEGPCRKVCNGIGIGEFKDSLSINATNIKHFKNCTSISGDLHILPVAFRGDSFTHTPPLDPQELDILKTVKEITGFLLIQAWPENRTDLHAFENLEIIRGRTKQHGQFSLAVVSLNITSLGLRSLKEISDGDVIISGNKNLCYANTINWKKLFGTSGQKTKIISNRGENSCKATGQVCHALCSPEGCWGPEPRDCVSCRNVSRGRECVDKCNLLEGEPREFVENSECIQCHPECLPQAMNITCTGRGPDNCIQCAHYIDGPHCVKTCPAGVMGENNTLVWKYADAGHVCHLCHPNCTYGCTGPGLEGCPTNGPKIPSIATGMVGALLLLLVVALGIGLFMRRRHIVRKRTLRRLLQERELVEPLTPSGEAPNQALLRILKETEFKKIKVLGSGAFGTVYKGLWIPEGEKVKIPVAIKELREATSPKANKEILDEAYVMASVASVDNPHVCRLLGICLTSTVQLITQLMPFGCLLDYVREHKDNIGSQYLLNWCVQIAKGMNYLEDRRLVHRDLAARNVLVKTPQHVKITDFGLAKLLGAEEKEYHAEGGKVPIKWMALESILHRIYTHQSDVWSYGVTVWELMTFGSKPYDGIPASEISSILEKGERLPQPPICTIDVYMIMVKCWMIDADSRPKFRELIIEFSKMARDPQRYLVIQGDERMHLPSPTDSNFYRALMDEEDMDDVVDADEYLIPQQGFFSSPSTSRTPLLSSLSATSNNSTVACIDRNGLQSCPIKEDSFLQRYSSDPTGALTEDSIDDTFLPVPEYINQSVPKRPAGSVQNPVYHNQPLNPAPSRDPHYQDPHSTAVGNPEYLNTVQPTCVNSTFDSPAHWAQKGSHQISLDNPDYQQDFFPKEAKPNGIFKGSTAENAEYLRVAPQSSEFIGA

Turning to `C=CC(=O)Nc1ccc(F)c(Nc2nc(Nc3cn(C)nc3C)ncc2-c2ccc(C(F)(F)F)cc2)c1` [Compound 135, N-(3-((2-((1,3-dimethyl-1H-pyrazol-4-yl)amino)-5-(4-(trifluoromethyl)phenyl)pyrimidin-4-yl)amino)-4-fluorophenyl)acrylamide trifluoroacetate], the GI50 was determined as 0.12 µM in assay [1], 0.257 µM in assay [2], 0.235 µM in assay [4] and 0.413 µM in assay [5]. The negative logarithm of the IC50 (pIC50) in assay [3] (setting [6]) is 7.03.
For `C=CC(=O)Nc1ccc(F)c(Nc2nc(Nc3cnn(C)c3)ncc2-c2cncc(F)c2)c1` [Compound 69, N-(4-fluoro-3-((5-(5-fluoropyridin-3-yl)-2-((1-methyl-1H-pyrazol-4-yl)amino)pyrimidin-4-yl)amino)phenyl)acrylamide], in that order: 0.011 µM, 0.014 µM, 0.021 µM, 0.019 µM and 7.19.
For `C=CC(=O)Nc1cccc(Oc2nc(Nc3cnn(C)c3)ncc2-c2ccc(C(F)(F)F)cc2)c1` [Compound 151, N-(3-((2-((1-methyl-1H-pyrazol-4-yl)amino)-5-(4-(trifluoromethyl)phenyl)pyrimidin-4-yl)oxy)phenyl)acrylamide], in that order: 0.105 µM, 0.129 µM, 0.226 µM, 0.354 µM and 6.43.
Turning to `C=CC(=O)Nc1ccc(F)c(Nc2nc(Nc3cnn(C)c3)ncc2-c2ccc(Cl)cc2)c1` [Compound 61, N-(3-((5-(4-chlorophenyl)-2-((1-methyl-1H-pyrazol-4-yl)amino)pyrimidin-4-yl)amino)-4-fluorophenyl)acrylamide], the GI50 was 0.056 µM in assay [1], 0.099 µM in assay [2], 0.091 µM in assay [4] and 0.219 µM in assay [5]. Besides, the pIC50 in assay [3] (setting [6]) was 6.58.
On the same counts, the results for `C=CC(=O)Nc1cncc(Nc2nc(Nc3cnn(C)c3)ncc2-c2ccc(C(F)(F)F)cc2)c1` [Compound 195, N-(5-((2-((1-methyl-1H-pyrazol-4-yl)amino)-5-(4-(trifluoromethyl)phenyl)pyrimidin-4-yl)amino)pyridin-3-yl)acrylamide] are 0.057 µM, 0.135 µM, 0.18 µM, 0.258 µM and 6.28.
As to `[2H]C([2H])=CC(=O)Nc1ccc(F)c(Nc2nc(Nc3cnn(C)c3)ncc2-c2ccc(C(F)(F)F)cc2)c1` [Compound 247, N-[4-fluoro-3-({2-[(1-methyl-1H-pyrazol-4-yl)amino]-5-[4-(trifluoromethyl)phenyl]pyrimidin-4-yl}amino)phenyl] (3,3-2H2) prop-2-enamide], the GI50 was determined as 0.086 µM in assay [1], 0.123 µM in assay [2], 0.144 µM in assay [4] and 0.27 µM in assay [5]. Besides, the pIC50 in assay [3] (Homo sapiens, A-431; A431 cells, 72 hr, Alamar Blue; read-out: A431 IC50) was 5.52.
Take `C=CC(=O)Nc1cccc(Oc2nc(Nc3cnn(C)c3)ncc2-c2cncc(F)c2)c1` [Compound 184, N-(3-((5-(5-fluoropyridin-3-yl)-2-((1-methyl-1H-pyrazol-4-yl)amino)pyrimidin-4-yl)oxy)phenyl)acrylamide]: the GI50 came out at 0.037 µM in assay [1], 0.027 µM in assay [2], 0.222 µM in assay [4] and 0.06 µM in assay [5]. The pIC50 in assay [3] (setting [6]) was 7.01.
As for `C=CC(=O)Nc1ccc(F)c(Nc2nc(Nc3cnn(C)c3)ncc2-c2ccc(OC)cc2)c1` [Compound 91, N-(4-fluoro-3-((5-(4-methoxyphenyl)-2-((1-methyl-1H-pyrazol-4-yl)amino)pyrimidin-4-yl)amino)phenyl)acrylamide], the GI50 turned out to be 0.062 µM in assay [1], 0.108 µM in assay [2], 0.091 µM in assay [4] and 0.479 µM in assay [5]. Also, the negative-log IC50 (pIC50) in assay [3] (setting [6]) was 6.02.
On the same counts, the results for `C=CC(=O)Nc1ccc(F)c(Nc2nc(Nc3cnn(C)c3)ncc2-c2ccc(N(C)C)cc2)c1` [Compound 103, N-(3-((5-(4-(dimethylamino)phenyl)-2-((1-methyl-1H-pyrazol-4-yl)amino)pyrimidin-4-yl)amino)-4-fluorophenyl)acrylamide] are 0.157 µM, 0.287 µM, 0.281 µM, 0.461 µM and 6.31.
For `C=CC(=O)Nc1ccc(F)c(Nc2nc(Nc3cnn(C)c3)ncc2-c2ccc(N3CCOCC3)cc2)c1` [Compound 94, N-(4-fluoro-3-((2-((1-methyl-1H-pyrazol-4-yl)amino)-5-(4-morpholinophenyl)pyrimidin-4-yl)amino)phenyl)acrylamide], in that order: 0.542 µM, 0.109 µM, 0.448 µM, 1.27 µM and less than 5.00.

The record behind these values is US12686673B2 (Blueprint Medicines Corporation, priority 2020, dated 2026).
